Source: ChEMBL document CHEMBL1201862, “PubChem BioAssay data set” (2004)
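1) Cells in 96-well plates. 2) Compound, 48 h, 5 concentrations. 3) Linear interpolation between surrounding doses. 4) Unreached endpoint = highest concentration. Here, GI50 denotes the concentration required for 50% inhibition of growth.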 Activity calls are given as the source filed them. No stated cut-off is given here; in the data, active = GI50 up to about 1.1 µM and inactive = higher.

Legend:
Experiment in all cases: inhibition of tumour cell growth, NCI panel, 48 h
[1] = tested on: BT-549
[2] = tested on: T47D
[3] = tested on: M14
[4] = tested on: SK-MEL-5
[5] = tested on: SF-539
[6] = tested on: MDA-MB-435
[7] = tested on: HCC 2998
[8] = tested on: SNB-19
[9] = tested on: SR
[10] = tested on: NCI/ADR-RES
[11] = tested on: MCF7
[12] = tested on: DU-145
[13] = tested on: MDA-MB-231
[14] = tested on: IGROV-1
[15] = tested on: 786-0
[16] = tested on: HCT-15
[17] = tested on: OVCAR-4
[18] = tested on: K562
[19] = tested on: OVCAR-3
[20] = tested on: SF-268
[21] = tested on: HOP-62
[22] = tested on: SF-295
[23] = tested on: COLO 205
[24] = tested on: EKVX
[25] = tested on: NCI-H226
[26] = tested on: LOX IMVI
[27] = tested on: A498
[28] = tested on: SK-OV-3
[29] = tested on: KM12
[30] = tested on: UO-31
[31] = tested on: HL-60
[32] = tested on: ACHN
[33] = tested on: OVCAR-5
[34] = tested on: OVCAR-8
[35] = tested on: RXF 393
[36] = tested on: U-251
[37] = tested on: HOP-92
[38] = tested on: HT-29
[39] = tested on: UACC-257
[40] = tested on: CAKI-1
[41] = tested on: SN12C
[42] = tested on: MOLT-4
[43] = tested on: NCI-H460
[44] = tested on: SNB-75
[45] = tested on: RPMI-8226
[46] = tested on: NCI-H522
[47] = tested on: SW-620
[48] = tested on: Hs-578T
[49] = tested on: Malme-3M
[50] = tested on: UACC-62
[51] = tested on: TK-10
[52] = tested on: PC-3
[53] = tested on: CCRF-CEM
[54] = tested on: NCI-H23
[55] = tested on: SK-MEL-2
[56] = tested on: SK-MEL-28
[57] = tested on: HCT-116
[58] = tested on: MDA-N
[59] = tested on: A549

SMILES: COc1ccc(/C=C/C(=O)Oc2ccccc2OC)cc1
- GI50 [1]: 67 µM (inactive)
- GI50 [2]: 31.5 µM (inactive)
- GI50 [3]: 30.6 µM (inactive)
- GI50 [4]: 30.7 µM (inactive)
- GI50 [5]: 53.2 µM (inactive)
- GI50 [6]: 40.6 µM (inactive)
- GI50 [7]: 16.6 µM (inactive)
- GI50 [8]: 50.2 µM (inactive)
- GI50 [9]: 6.73 µM (inactive)
- GI50 [10]: 27.8 µM (inactive)
- GI50 [11]: 44.4 µM (inactive)
- GI50 [12]: > 61.8 µM (inactive)
- GI50 [13]: 6.52 µM (inactive)
- GI50 [14]: 5.2 µM (inactive)
- GI50 [15]: 14 µM (inactive)
- GI50 [16]: 3.27 µM
- GI50 [17]: 9.59 µM (inactive)
- GI50 [18]: 23.8 µM (inactive)
- GI50 [19]: 53.8 µM (inactive)
- GI50 [20]: 1.81 µM (inactive)
- GI50 [21]: 8 µM (inactive)
- GI50 [22]: 3.21 µM (inactive)
- GI50 [23]: 7.26 µM (inactive)
- GI50 [24]: 37.8 µM (inactive)
- GI50 [25]: > 96.6 µM (inactive)
- GI50 [26]: 29.9 µM (inactive)
- GI50 [27]: > 100 µM (inactive)
- GI50 [28]: > 100 µM (inactive)
- GI50 [29]: 9.04 µM (inactive)
- GI50 [30]: 37.7 µM (inactive)
- GI50 [31]: 6.98 µM (inactive)
- GI50 [32]: > 27.6 µM (inactive)
- GI50 [33]: 23.6 µM (inactive)
- GI50 [34]: 26.5 µM (inactive)
- GI50 [35]: > 51.5 µM (inactive)
- GI50 [36]: 37.4 µM (inactive)
- GI50 [37]: > 48.2 µM (inactive)
- GI50 [38]: 16.4 µM (inactive)
- GI50 [39]: > 60.7 µM (inactive)
- GI50 [40]: > 46.1 µM (inactive)
- GI50 [41]: 13.9 µM (inactive)
- GI50 [42]: 1.57 µM (inactive)
- GI50 [43]: > 100 µM (inactive)
- GI50 [44]: 27.2 µM (inactive)
- GI50 [45]: 1.95 µM (inactive)
- GI50 [46]: 20.3 µM (inactive)
- GI50 [47]: 21.5 µM (inactive)
- GI50 [48]: 41.7 µM (inactive)
- GI50 [49]: 56.9 µM (inactive)
- GI50 [50]: 54.5 µM (inactive)
- GI50 [51]: > 81.8 µM (inactive)
- GI50 [52]: 44.4 µM (inactive)
- GI50 [53]: 336 nM (active)
- GI50 [54]: 33 µM (inactive)
- GI50 [55]: 39 µM (inactive)
- GI50 [56]: 73.5 µM (inactive)
- GI50 [57]: 2.91 µM (inactive)
- GI50 [58]: 36.4 µM (inactive)
- GI50 [59]: 37.8 µM (inactive)

SMILES: COc1ccc(C(=O)N(Cc2cccnc2)C(=S)N(Cc2cccnc2)C(=O)c2ccc(OC)cc2)cc1
- GI50 [1]: > 100 µM (inactive)
- GI50 [2]: > 100 µM (inactive)
- GI50 [3]: > 100 µM (inactive)
- GI50 [4]: > 100 µM (inactive)
- GI50 [5]: > 100 µM (inactive)
- GI50 [6]: 62.8 µM (inactive)
- GI50 [7]: > 100 µM (inactive)
- GI50 [8]: 40.3 µM (inactive)
- GI50 [9]: > 100 µM (inactive)
- GI50 [10]: 75.2 µM (inactive)
- GI50 [11]: > 100 µM (inactive)
- GI50 [12]: > 100 µM (inactive)
- GI50 [13]: > 100 µM (inactive)
- GI50 [15]: > 100 µM (inactive)
- GI50 [16]: > 100 µM
- GI50 [17]: 37.4 µM (inactive)
- GI50 [18]: > 100 µM (inactive)
- GI50 [19]: > 100 µM (inactive)
- GI50 [20]: 52.1 µM (inactive)
- GI50 [21]: 35 µM (inactive)
- GI50 [22]: 57.8 µM (inactive)
- GI50 [23]: > 100 µM (inactive)
- GI50 [24]: > 100 µM (inactive)
- GI50 [25]: > 100 µM (inactive)
- GI50 [26]: > 100 µM (inactive)
- GI50 [27]: > 100 µM (inactive)
- GI50 [28]: 67.3 µM (inactive)
- GI50 [29]: 70.8 µM (inactive)
- GI50 [31]: > 100 µM (inactive)
- GI50 [32]: > 100 µM (inactive)
- GI50 [33]: > 100 µM (inactive)
- GI50 [34]: 66.8 µM (inactive)
- GI50 [35]: 38.8 µM (inactive)
- GI50 [36]: 55.2 µM (inactive)
- GI50 [37]: 36.6 µM (inactive)
- GI50 [38]: > 100 µM (inactive)
- GI50 [39]: > 100 µM (inactive)
- GI50 [40]: 86.9 µM (inactive)
- GI50 [41]: > 100 µM (inactive)
- GI50 [42]: > 100 µM (inactive)
- GI50 [43]: > 100 µM (inactive)
- GI50 [44]: 17.2 µM (inactive)
- GI50 [45]: > 100 µM (inactive)
- GI50 [46]: 72.1 µM (inactive)
- GI50 [47]: > 100 µM (inactive)
- GI50 [48]: > 100 µM (inactive)
- GI50 [49]: > 100 µM (inactive)
- GI50 [50]: > 100 µM (inactive)
- GI50 [51]: > 100 µM (inactive)
- GI50 [52]: > 100 µM (inactive)
- GI50 [53]: > 100000 nM (inactive)
- GI50 [54]: > 100 µM (inactive)
- GI50 [55]: > 100 µM (inactive)
- GI50 [56]: > 100 µM (inactive)
- GI50 [57]: > 100 µM (inactive)
- GI50 [58]: > 100 µM (inactive)
- GI50 [59]: > 100 µM (inactive)

SMILES: CN(C)CCNc1ccc2c(=O)n(CCN(C)C)c(=O)n3c4ccc([N+](=O)[O-])cc4c(=O)c1c23
- GI50 [1]: 0.655 µM (active)
- GI50 [2]: 0.653 µM (active)
- GI50 [3]: 1 µM (active)
- GI50 [4]: 1.04 µM (active)
- GI50 [5]: 0.277 µM (active)
- GI50 [6]: 0.49 µM (active)
- GI50 [7]: 0.387 µM (active)
- GI50 [8]: 0.452 µM (active)
- GI50 [9]: 0.0815 µM (active)
- GI50 [10]: 0.251 µM (active)
- GI50 [11]: 0.0716 µM (active)
- GI50 [12]: 0.267 µM (active)
- GI50 [13]: 0.429 µM (active)
- GI50 [14]: 0.126 µM (active)
- GI50 [15]: 0.294 µM (active)
- GI50 [16]: 0.0966 µM
- GI50 [17]: 0.301 µM (active)
- GI50 [18]: 0.063 µM (active)
- GI50 [19]: 0.27 µM (active)
- GI50 [20]: 0.334 µM (active)
- GI50 [21]: 0.384 µM (active)
- GI50 [22]: 0.359 µM (active)
- GI50 [23]: 0.179 µM (active)
- GI50 [24]: 0.55 µM (active)
- GI50 [25]: 0.312 µM (active)
- GI50 [26]: 0.178 µM (active)
- GI50 [27]: 1.41 µM (inactive)
- GI50 [28]: 0.76 µM (active)
- GI50 [29]: 0.518 µM (active)
- GI50 [30]: 0.262 µM (active)
- GI50 [31]: 0.157 µM (active)
- GI50 [32]: 0.146 µM (active)
- GI50 [33]: 0.532 µM (active)
- GI50 [34]: 0.248 µM (active)
- GI50 [35]: 0.198 µM (active)
- GI50 [36]: 0.34 µM (active)
- GI50 [37]: 0.201 µM (active)
- GI50 [38]: 0.0946 µM (active)
- GI50 [39]: 0.728 µM (active)
- GI50 [40]: 0.498 µM (active)
- GI50 [41]: 0.197 µM (active)
- GI50 [42]: < 0.0141 µM (active)
- GI50 [43]: 0.0838 µM (active)
- GI50 [44]: 0.293 µM (active)
- GI50 [45]: 0.163 µM (active)
- GI50 [46]: 0.08 µM (active)
- GI50 [47]: 0.0524 µM (active)
- GI50 [48]: 1.01 µM (active)
- GI50 [49]: 0.344 µM (active)
- GI50 [50]: 1.24 µM (inactive)
- GI50 [51]: 1.09 µM (active)
- GI50 [52]: 0.482 µM (active)
- GI50 [53]: 38.2 nM (active)
- GI50 [54]: 0.177 µM (active)
- GI50 [55]: 0.397 µM (active)
- GI50 [56]: 1.04 µM (active)
- GI50 [57]: 0.0769 µM (active)
- GI50 [58]: 0.287 µM (active)
- GI50 [59]: 0.184 µM (active)
